The values below come from patent publication US9616025B2, “Compressed tablet containing Δ9-tetrahydrocannabinol, method for its manufacture and use of such tablet in oral treatment” (Echo Pharmaceuticals B.V., priority 2013, dated 2017).

The conditions of data set [1]: cited from earlier work; for reported tmax-values: previous studies.
A short description of data set [2]: Rate of dissolution of THC, Ph. Eur. 2.9.3, 1 wt % SDS in water pH 7. It is filed as physicochemical. Particulars: 5 mg THC, pH 7, 36-41° C. As to the method:
The rate of dissolution of THC from the compressed tablets described in Example 2 was tested according to European Pharmacopeia (Ph. Eur. 2.9.3) for oral tablets (5 mg THC). The rate of dissolution of pure THC (5 mg) was also measured according to the same method for comparison.
The dissolution medium consisted of a solution of 1 wt % SDS in water. The pH of the medium had been adjusted to pH 7 with diluted HCl. During the experiments, the temperature of the dissolution media was maintained between 36 and 41° C. under stirring.
After dropping the tablets in the dissolution medium, samples were taken at various time intervals with a disposable syringe. The samples were filtered immediately over a syringe filter into a HPLC vial and analyzed by HPLC.
Tablets were prepared as in Example 2, except that the sucrose fatty ester (SML) was substituted by glyceryl monostearate (GMS). Dissolution tests as described in example 3 were performed with these tablets and the tablets described in Example 2.

Like-named read-outs stand apart in the source and are kept apart here.

Turning to `CCCCCc1cc(O)c2c(c1)OC(C)(C)[C@@H]1CCC(C)=C[C@@H]21` [dronabinol], the “time to maximal concentration of the active metabolite 11-OHTHC” value in data set [1] (published) was 120 to 204 min.
With `CCCCCCC(C)(C)c1cc(O)c2c(c1)OC(C)(C)C1CCC(=O)CC21` (centres unmarked) [nabilone], in data set [1], the reported tmax-values was 2 to 4 h.
Regarding `CCCCCc1cc(O)c2c(c1)OC(C)(C)[C@@H]1CCC(C)=C[C@@H]21` [THC, Δ9-tetrahydrocannabinol], in data set [1] (after a 20 mg dose of oral THC (Ohlsson 1980)), the “Plasma THC maximum concentrations” value was 4.4 to 11.0 µg/L. The results for the bioavailability result in data set [1] (inhaled (Ohlsson 1982)) and in data set [1] (orally administered (Ohlsson 1982)) were “up to 27%” and “approximately 6%”, respectively. Besides, the “time of peak concentrations post dose” value in data set [1] (oral) was 1 to 5 h. For the same compound, the reported tmax-values in data set [1] was 1 to 4 h. Moreover, the “% (w/w) of THC dissolved” value in data set [2] (1 min) was 1.0 % (w/w); in data set [2] (4 min), 3.5 % (w/w); in data set [2] (8 min), 5.8 % (w/w); in data set [2] (15 min) it was 10.2 % (w/w).
